The values that follow come from ChEMBL document CHEMBL1201862, “PubChem BioAssay data set” (2004).

Among the test systems are DMS-273; HOP-18; LXFL 529; M19-MEL; SNB-78; XF498; DMS-114; KM-20L2; RXF 631.
Assay in all cases: growth of human tumour cells (NCI), 48 h

The structures appear in SMILES notation.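 Each compound was tested at five concentrations against cells in 96-well plates for 48 hours. GI50 = concentration required for 50% inhibition of growth.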 Activity calls are given as the source filed them. Rule as the data show it: active = GI50 up to about 1.1 µM and inactive = higher.

Turning to `Oc1cc(-c2ccc3c(c2)OCO3)nc2cc3c(cc12)OCO3`, the GI50 with DMS-273 was 21.3 µM (inactive); in the experiment on HOP-18 it was 72.6 µM (inactive); in the experiment on LXFL 529 it was 68.4 µM (inactive); with M19-MEL it was 20.5 µM (inactive); with SNB-78, 43 µM (inactive); in the experiment with XF498, 31.8 µM (inactive).

For `NC1=C(Cl)C(=O)c2ccccc2C1=O`, the GI50 in the experiment with DMS-114 was 3.89 µM (inactive); in the experiment with DMS-273, 5.82 µM (inactive); in the experiment with HOP-18, 9.66 µM (inactive); in the experiment with KM-20L2, 9.12 µM (inactive); in the experiment on LXFL 529 it was 12.6 µM (inactive); with M19-MEL it was 0.518 µM (active). Further, the GI50 in the experiment on SNB-78 was 25.4 µM (inactive); in the experiment with XF498, 11.2 µM (inactive).

Take `COc1ccc(C(O)/C(=C/n2ccnc2)c2ccccc2)cc1OC` (stereo not drawn): the GI50 in the experiment on DMS-114, with DMS-273, with HOP-18, in the experiment on KM-20L2, in the experiment with M19-MEL and with RXF 631 was > 100 µM (inactive) throughout. Also, the GI50 in the experiment with XF498 was > 100 µM (inactive).

With `C=CCNC(=O)NCCCCC(NC(C)=O)C(=O)NCc1ccccc1` (stereo not drawn), the GI50 with DMS-114, in the experiment on DMS-273, in the experiment with HOP-18, in the experiment on KM-20L2, in the experiment on LXFL 529 and in the experiment with M19-MEL was > 100 µM (inactive) throughout. Besides, the GI50 in the experiment on XF498 is > 100 µM (inactive).

On to `CN(C)CCCN1CCc2c([nH]c3ccccc23)C1c1cccnc1` (stereo not drawn), for which the GI50 in the experiment on DMS-114, in the experiment with DMS-273, in the experiment on KM-20L2, in the experiment with LXFL 529, in the experiment with M19-MEL and with RXF 631 was > 100 µM (inactive) in each case. Further, the GI50 in the experiment with SNB-78 and in the experiment on XF498 was > 100 µM (inactive) in each case.

On to `CC1(C)C(=O)/C=C\C(=O)C(C)(C)C(=O)/C=C\C(=O)C(C)(C)C2=CC=C(O2)C(C)(C)C(=O)/C=C\C1=O`, for which the GI50 was 8.26 µM (inactive) with DMS-114; 2.94 µM (inactive) in the experiment with DMS-273; 22.5 µM (inactive) in the experiment on HOP-18; 13.9 µM (inactive) in the experiment with KM-20L2; 2.4 µM (inactive) in the experiment on LXFL 529; 5.86 µM (inactive) in the experiment with M19-MEL. Further, the GI50 in the experiment with RXF 631 is 7.82 µM (inactive); in the experiment on SNB-78, 3.71 µM (inactive); with XF498, 1.88 µM (inactive).

`Cc1ccc(C(=O)N2CCN(C(=O)c3ccc(C)cc3)c3ccccc32)cc1`: the GI50 was 3.78 µM (inactive) in the experiment on DMS-114; 2.05 µM (inactive) with DMS-273; 17.7 µM (inactive) in the experiment on HOP-18; 3.28 µM (inactive) in the experiment with KM-20L2; 6.5 µM (inactive) with LXFL 529; 4.39 µM (inactive) in the experiment with M19-MEL. The GI50 with SNB-78 is 6.97 µM (inactive); in the experiment with XF498 it was 4.93 µM (inactive).

On to `CCCCN(CCCC)C(=Nc1ccccc1)N(CCCC)CCCC`, for which the GI50 in the experiment on DMS-114 was 1.59 µM (inactive); in the experiment on DMS-273, 4.61 µM (inactive); with HOP-18, 1.76 µM (inactive); in the experiment with KM-20L2, 0.851 µM (active); with LXFL 529 it was 5.36 µM (inactive); in the experiment on M19-MEL, 8.39 µM (inactive). The GI50 in the experiment on RXF 631 is 10.5 µM (inactive); in the experiment with SNB-78, 11.1 µM (inactive); with XF498, 2.05 µM (inactive).

Take `Cc1ccc(C(=O)NCCN(C)C)c2nc3ccccc3cc12`: the GI50 in the experiment on DMS-114 was 2.78 µM (inactive); with DMS-273 it was 0.467 µM (active); in the experiment on HOP-18, 1.92 µM (inactive); in the experiment on KM-20L2, 0.661 µM (active); in the experiment with LXFL 529, 2.15 µM (inactive); in the experiment on M19-MEL it was 2.31 µM (inactive). Moreover, the GI50 with RXF 631 is 0.817 µM (active); in the experiment with SNB-78, 13.2 µM (inactive); in the experiment with XF498, 1.38 µM (inactive).

Turning to `N#C/C(=C1\SCC(=O)N1c1ccccc1)c1nc2ccccc2[nH]1`, the GI50 in the experiment with DMS-114, in the experiment on DMS-273, with KM-20L2, in the experiment with LXFL 529, with M19-MEL and in the experiment on SNB-78 was > 100 µM (inactive) in each case. In the experiment on XF498, the GI50 was > 100 µM (inactive).

`Cc1ccc(NC(=O)CC/C(CC(=O)C(C)(C)C)=N\NC(=O)C[n+]2ccccc2)cc1C`: the GI50 is 73.6 µM (inactive) in the experiment on DMS-114; > 100 µM (inactive) in the experiment on DMS-273; > 100 µM (inactive) with HOP-18; > 100 µM (inactive) in the experiment on KM-20L2; > 100 µM (inactive) in the experiment with LXFL 529; > 100 µM (inactive) in the experiment with M19-MEL. Besides, the GI50 in the experiment with SNB-78 is > 100 µM (inactive); with XF498, 87.7 µM (inactive).

For `COC(=O)N/N=C(\C(=O)Nc1cccc([N+](=O)[O-])c1)c1nc2ccc([N+](=O)[O-])cc2nc1O`, the GI50 in the experiment on DMS-114 was 8.09 µM (inactive); with HOP-18, > 100 µM (inactive); in the experiment with KM-20L2, 13.9 µM (inactive); with LXFL 529 it was 27.7 µM (inactive); in the experiment with M19-MEL, 74.3 µM (inactive); with XF498, 0.494 µM (active).

`O=C(O)CNS(=O)(=O)c1ccc(NC(=O)CI)cc1`: the GI50 with DMS-273 is 17.7 µM (inactive); in the experiment with HOP-18, 34.3 µM (inactive); in the experiment on KM-20L2, 23.1 µM (inactive); in the experiment on LXFL 529, 6.97 µM (inactive); in the experiment with M19-MEL it was 32.4 µM (inactive); in the experiment on RXF 631 it was 16.4 µM (inactive). Moreover, the GI50 with XF498 was 14.6 µM (inactive).

In the case of `COP(=O)(OC)C(NC(=O)C(F)(F)F)(c1ccccc1)C(F)(F)F` (stereo not drawn), the GI50 in the experiment with DMS-114, in the experiment on DMS-273, in the experiment on HOP-18, with KM-20L2, in the experiment on M19-MEL and with XF498 was > 100 µM (inactive) in each case.

Turning to `O=C1CC[C@@H](S(=O)(=O)c2ccccc2)[C@@H](/C=C/c2ccccc2)O1`, the GI50 in the experiment on DMS-114 is > 100 µM (inactive); with HOP-18, > 100 µM (inactive); in the experiment with KM-20L2 it was > 100 µM (inactive); with LXFL 529, > 100 µM (inactive); in the experiment with M19-MEL it was > 100 µM (inactive); with XF498 it was < 0.01 µM (active).

Turning to `Cc1ccc2c(ccc(/C=C\c3cc(C)c4cccnc4c3O)[n+]2C)c1`, the GI50 in the experiment with DMS-114 is 0.811 µM (active); in the experiment with DMS-273, 0.352 µM (active); in the experiment with HOP-18, 1.81 µM (inactive); in the experiment with KM-20L2 it was 2.84 µM (inactive); in the experiment on LXFL 529 it was 0.3 µM (active).

Regarding `COC(=O)C1=C(C[S+]([O-])c2ccc([N+](=O)[O-])cc2[N+](=O)[O-])C2C=CC1C2` (stereo not drawn), the GI50 in the experiment with DMS-114 is 23.4 µM (inactive); in the experiment with DMS-273, 20.2 µM (inactive); in the experiment with HOP-18 it was 29.4 µM (inactive); in the experiment on KM-20L2 it was 22 µM (inactive); in the experiment on LXFL 529, 22.2 µM (inactive); with M19-MEL, 20.1 µM (inactive). Moreover, the GI50 in the experiment with RXF 631 is 17.8 µM (inactive); in the experiment on SNB-78 it was 48.3 µM (inactive); in the experiment with XF498, 28.5 µM (inactive).

For the molecule `N#CC(C#N)=c1ccc(=C2NCC3CCCN23)cc1` (stereo not drawn), the GI50 in the experiment on DMS-114, in the experiment on DMS-273, with HOP-18, with KM-20L2, in the experiment with LXFL 529 and with M19-MEL was > 100 µM (inactive) each time. Also, the GI50 with SNB-78 was > 100 µM (inactive).

In the case of `CC(=O)NC1=C(Nc2ccc(C)cc2)C(=O)c2ccccc2C1=O`, the GI50 in the experiment with DMS-114 is 14.5 µM (inactive); with DMS-273 it was 16.5 µM (inactive); with HOP-18 it was 12.2 µM (inactive); in the experiment on KM-20L2, 24.1 µM (inactive); in the experiment on LXFL 529, 23.6 µM (inactive); in the experiment on M19-MEL it was 8.43 µM (inactive). Further, the values for the GI50 in the experiment with SNB-78 and in the experiment with XF498 were 44.9 µM (inactive) and 24.9 µM (inactive), respectively.

Consider `COC(=O)[C@@]12C3=NO[C@]1(C(=O)OC)C(O[Si](C)(C)C(C)(C)C)C1OC(C)(C)OC1[C@@H]2[C@@H](OCc1ccccc1)CC3` (stereo partly drawn), for which the GI50 in the experiment on DMS-114 was 49.5 µM (inactive); in the experiment on DMS-273, 51.4 µM (inactive); in the experiment on HOP-18, > 100 µM (inactive); with KM-20L2, > 100 µM (inactive); in the experiment with LXFL 529, 46.3 µM (inactive); with M19-MEL, > 100 µM (inactive).

On to `CC(C)(O)C(O)COc1c2c(cc3oc(=O)ccc13)OCO2` (stereo not drawn), for which the GI50 with DMS-114, with DMS-273, in the experiment with HOP-18, in the experiment on KM-20L2, with LXFL 529 and with M19-MEL was > 100 µM (inactive) in each case. The GI50 in the experiment on XF498 is > 100 µM (inactive).
